These results are taken from patent US20260048043A1, “HIGH LOADING ORAL FILM FORMULATION WITH IMPROVED BIOAVAILABILITY” (INTELGENX CORP., priority 2022, published 2026).

The nature of this series: Compatibility of maropitant with polyacid polymers (precipitate formation). It counts as physicochemical. To be noted: neutral pH.

`COc1ccc(C(C)(C)C)cc1CN[C@H]1C2CCN(CC2)[C@H]1C(c1ccccc1)c1ccccc1` [Maropitant, (2S,3S)-(Diphenylmethyl)-N-[2-methoxy-5-(2-methyl-2-propanyl)benzyl]quinuclidin-3-amine]: the “precipitate formation with polyacid polymer(s) such as CMC, Carbomer and polycarbophil” value is “precipitate was formed”.
